The source of these data is patent US20260200902A1, “CRYSTALLINE FORMS OF 7-CHLORO-2-(4-(3-METHOXYAZETIDIN-1-YL)CYCLOHEXYL)-2,4- DIMETHYL-N-((6-METHYL-4-(METHYLTHIO)-2-OXO-1,2-DIHYDROPYRIDIN-3-YL)METHYL)BENZO [D][1,3]DIOXOLE-5-CARBOXAMIDE” (Constellation Pharmaceuticals, Inc., priority 2019, published 2026).

Holding throughout (assay type): physicochemical
Series [1] is described as follows: Static stability storage at elevated RH (5 days), XRPD and HPLC. The settings on record: for Solid form by XRPD after storage: stored for 5 days at elevated RH conditions.
Series [2] can be described thus: Gravimetric vapour sorption (GVS) analysis. Conditions: for XRPD post GVS (solid form): after GVS analysis.
Series [3] is described as follows: Relative stability of crystalline forms (polymorph screening and competitive slurry experiments). Conditions: Form 1 versus Form 2. As to the method: The amorphous form of Compound 1 samples with different purities, one with 95.2% purity (30 mg) and another with 97.6% purity (20 mg), were each suspended or dissolved in 10-30 vol of a given solvent at RT. After 5 m n equilibration at RT, all samples (solutions and suspensions) were heated to 50° C. for 10 minutes and the resulting samples were treated as follows: Suspensions were matured between 60 and 5 FC for 72 hrs (4 hrs at each temperature). Solutions were cooled from 50 to 5° C. at 0.1° C./min and maintained at 5° C. for 72 hrs. If no solid was obtained, the solutions were allowed to evaporate at RT. All the recovered solids were analyzed by XRPD and subsequently by the appropriate techniques. See Tables 1-3 for screening procedures and analytical results.

“Also recorded” adds a separate entry of the source.

Take `COC1CN(C2CCC(C3(C)Oc4c(Cl)cc(C(=O)NCc5c(SC)cc(C)[nH]c5=O)c(C)c4O3)CC2)C1` (centres unmarked) [Form 1, 7-chloro-2-(4-(3-methoxyazetidin-1-yl)cyclohexyl)-2,4-dimethyl-N-((6-methyl-4-(methylthio)-2-oxo-1,2-dihydropyridin-3-yl)methyl)benzo[d][1,3]dioxole-5-carboxamide]: in series [1] (25° C./97% RH (5 days)), the “Static stability, HPLC” value is given as 96.8% and the “Static stability, XRPD” value is reported as “XRPD: Slight reduction in crystallinity,; also recorded: remained pattern 1”. For the same molecule, in series [1] (40° C./75% RH (5 days)), the “Static stability, HPLC” value came to 96.5% and the “Static stability, XRPD” value is listed as “XRPD: Slight reduction in crystallinity,; also recorded: remained pattern 1”. Further, the “Solid form by XRPD after storage” value in series [1] is “remained Form 1”. Further, in series [2], the “Hygroscopicity by GVS analysis” value is listed as “slightly hygroscopic” and the “XRPD post GVS (solid form)” value is reported as “remained Form 1; also recorded: showed the material remained Pattern 1”. In series [3], the “Relative stability of crystalline form” value is on record as “more stable than Form 2”.
Take `COC1CN(C2CCC(C3(C)Oc4c(Cl)cc(C(=O)NCc5c(SC)cc(C)[nH]c5=O)c(C)c4O3)CC2)C1` (centres unmarked) [Form 2, 7-chloro-2-(4-(3-methoxyazetidin-1-yl)cyclohexyl)-2,4-dimethyl-N-((6-methyl-4-(methylthio)-2-oxo-1,2-dihydropyridin-3-yl)methyl)benzo[d][1,3]dioxole-5-carboxamide]: the “Solid form by XRPD after storage” value in series [1] is recorded as “became amorphous”. Also, the “XRPD post GVS (solid form)” value in series [2] is “became amorphous”. Further, the “Relative stability of crystalline form” value in series [3] is “less stable crystalline form than Form 1”.
